Data on 17 compounds can be found in US9981909B2 (Janssen Pharmaceutica NV, priority 2008, dated 2018).

Read-outs that look alike come from different tables or passages of the source. Bounds are passed on as bounds.

For one assay, the target named is rat 5-HT7 receptor (Rattus norvegicus (Rat), UniProt P32305). As to the kind of experiment: r5-HT7 binding assay, competitive radioligand binding with [3H]5-CT. The gist of the method: (§1)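 Rat 5-HT7 binding: HEK-293 membrane fractions, [3H]5-CT displacement, radioactivity counted, Ki reported. Antagonist mode: intact r5-HT7 HEK-293 cells, test compound 10 min, then 5-CT 100 nM for 20 min, lysis, cAMP by competitive immunoassay.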
Sequence of rat 5-HT7 receptor (P32305 1-435): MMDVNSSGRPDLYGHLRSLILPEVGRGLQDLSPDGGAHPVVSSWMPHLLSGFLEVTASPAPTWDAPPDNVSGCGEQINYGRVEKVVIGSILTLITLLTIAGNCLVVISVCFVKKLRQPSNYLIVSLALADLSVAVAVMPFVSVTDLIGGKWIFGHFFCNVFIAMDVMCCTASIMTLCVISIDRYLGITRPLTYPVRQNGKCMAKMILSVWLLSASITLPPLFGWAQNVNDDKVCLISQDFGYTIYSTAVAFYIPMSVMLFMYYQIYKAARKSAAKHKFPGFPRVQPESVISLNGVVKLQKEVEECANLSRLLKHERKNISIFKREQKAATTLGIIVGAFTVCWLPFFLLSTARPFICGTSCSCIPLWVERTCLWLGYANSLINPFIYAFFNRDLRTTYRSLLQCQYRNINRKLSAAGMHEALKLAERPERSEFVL

Assay [1] deals with T1, h5HT2A (Homo sapiens (Human), UniProt P28223). As to the kind of experiment: h5HT2A binding.
T1 sequence (P28223 whole entry): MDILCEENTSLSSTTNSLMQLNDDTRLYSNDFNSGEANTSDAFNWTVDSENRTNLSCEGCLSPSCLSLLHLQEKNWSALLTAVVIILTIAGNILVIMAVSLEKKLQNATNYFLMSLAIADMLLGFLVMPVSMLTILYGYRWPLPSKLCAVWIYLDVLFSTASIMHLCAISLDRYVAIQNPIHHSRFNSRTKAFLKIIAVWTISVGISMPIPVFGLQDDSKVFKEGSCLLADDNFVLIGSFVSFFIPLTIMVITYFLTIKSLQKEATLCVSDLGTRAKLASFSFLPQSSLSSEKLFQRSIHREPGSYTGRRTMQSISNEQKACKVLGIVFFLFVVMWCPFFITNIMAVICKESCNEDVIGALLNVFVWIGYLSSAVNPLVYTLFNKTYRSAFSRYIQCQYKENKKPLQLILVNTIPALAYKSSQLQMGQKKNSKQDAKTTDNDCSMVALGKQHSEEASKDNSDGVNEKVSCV
Assay [2] deals with T2, h5HT2B (Homo sapiens (Human), UniProt P41595). The assay can be described thus: h5HT2B binding.
T2 sequence (P41595 whole entry): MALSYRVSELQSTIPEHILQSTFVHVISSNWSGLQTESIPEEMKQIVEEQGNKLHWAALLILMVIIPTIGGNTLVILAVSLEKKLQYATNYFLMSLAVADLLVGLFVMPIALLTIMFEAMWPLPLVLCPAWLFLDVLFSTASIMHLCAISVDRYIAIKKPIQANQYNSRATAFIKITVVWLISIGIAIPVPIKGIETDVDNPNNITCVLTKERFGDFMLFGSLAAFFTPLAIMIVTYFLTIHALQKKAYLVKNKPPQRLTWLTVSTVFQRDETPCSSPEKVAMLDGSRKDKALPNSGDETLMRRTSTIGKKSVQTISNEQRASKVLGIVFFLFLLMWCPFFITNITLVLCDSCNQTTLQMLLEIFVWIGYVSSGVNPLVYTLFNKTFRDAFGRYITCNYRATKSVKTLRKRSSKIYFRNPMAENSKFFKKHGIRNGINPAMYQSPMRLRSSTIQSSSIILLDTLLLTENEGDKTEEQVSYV
The target of assay [3] is T3, h5HT2C (Homo sapiens (Human), UniProt P28335). The assay can be described thus: h5HT2C binding.
T3 sequence (P28335 33-458): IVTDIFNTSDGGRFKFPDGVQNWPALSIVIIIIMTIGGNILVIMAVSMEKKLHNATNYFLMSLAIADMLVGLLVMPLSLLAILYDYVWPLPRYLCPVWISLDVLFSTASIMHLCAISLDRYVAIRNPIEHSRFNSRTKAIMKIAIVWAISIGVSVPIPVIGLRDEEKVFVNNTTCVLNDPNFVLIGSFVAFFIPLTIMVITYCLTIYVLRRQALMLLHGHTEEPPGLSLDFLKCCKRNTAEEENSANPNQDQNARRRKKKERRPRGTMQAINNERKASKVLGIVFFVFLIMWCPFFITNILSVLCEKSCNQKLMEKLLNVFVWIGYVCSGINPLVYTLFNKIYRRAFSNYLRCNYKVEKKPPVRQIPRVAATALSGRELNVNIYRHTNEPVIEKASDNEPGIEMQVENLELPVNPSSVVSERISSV
In another assay the target is r5-HT7 receptor (Rattus norvegicus (Rat), UniProt P32305). The assay can be described thus: HitHunter cAMP assay, antagonist testing against 100 nM 5-CT. In kind it is cell-based. The settings on record: antagonist testing, 100 nM 5-CT challenge, HEK-293 r5-HT7; read-out: R5HT7 cAMP pKb (converted). The gist of the method: as §1
Sequence of r5-HT7 receptor (P32305 1-435): as the sequence (P32305 1-435) above
The next assay addresses h5-HT6 (Homo sapiens (Human), UniProt P50406). The assay can be described thus: h5-HT6 binding assay with [3H]LSD on HEK-293 membranes. The settings on record: h5-HT6, [3H]LSD, HEK-293 membranes; read-out: h5HT6 binding Ki. As to the method: Receptor binding was performed using membrane fractions prepared from the HEK-293 cell line recombinantly expressing rat 5-HT7 receptors (NCBI accession NM_022938). Compound affinity for the rat 5-HT7 receptor subtype was evaluated by competitive radioligand binding assays using 5-carboxamido[^3H]tryptamine ([^3H]5-CT) (Amersham Biosciences, cat. 90000403) detection. HitHunter™ cAMP assays are in-vitro based competitive immunoassays. The assay was performed on the HEK-293 cell line stably transfected with r5-HT7 receptor. Cells were pre-incubated with test compounds for 10 minutes. For antagonist testing, the cells were then challenged with 100 nM 5-CT for 20 minutes. Cells were then lysed and cAMP measured according to manufacturers protocol (Amersham, cat. NET791250UC) or [^3H]mesulergine (Amersham, cat. TRK1041). The assay was performed on membranes prepared from HEK-293 cells stably transfected with h5-HT6. Following centrifugation, membranes were resuspended and incubated for 60 min at room temperature with 1.7 nM [^3H]LSD in the presence of increasing concentration of test compounds. Nonspecific binding was defined in the presence of 10 μM clozapine (Tocris, cat. TRK1068). Homogenized HEK-293 membranes expressing the human SERT were incubated in 50 mM Tris-HCl (pH 7.5), 120 mM NaCl, 5 mM KCl with [^3H]-citalopram (3 nM) with or without test compounds. Nonspecific binding was determined in the presence of 10 μM fluoxetine. Radioactivity readouts and Ki values were performed as previously described for r5-HT7. […] Compounds were assayed in their free form or as salts, as indicated in the Examples section above.

In a further assay the target is human SERT (Homo sapiens (Human), UniProt P31645). As to the kind of experiment: human SERT binding assay with [3H]-citalopram on HEK-293 membranes. The settings on record: read-out: hSERT binding Ki.
Sequence of human SERT (P31645 whole entry): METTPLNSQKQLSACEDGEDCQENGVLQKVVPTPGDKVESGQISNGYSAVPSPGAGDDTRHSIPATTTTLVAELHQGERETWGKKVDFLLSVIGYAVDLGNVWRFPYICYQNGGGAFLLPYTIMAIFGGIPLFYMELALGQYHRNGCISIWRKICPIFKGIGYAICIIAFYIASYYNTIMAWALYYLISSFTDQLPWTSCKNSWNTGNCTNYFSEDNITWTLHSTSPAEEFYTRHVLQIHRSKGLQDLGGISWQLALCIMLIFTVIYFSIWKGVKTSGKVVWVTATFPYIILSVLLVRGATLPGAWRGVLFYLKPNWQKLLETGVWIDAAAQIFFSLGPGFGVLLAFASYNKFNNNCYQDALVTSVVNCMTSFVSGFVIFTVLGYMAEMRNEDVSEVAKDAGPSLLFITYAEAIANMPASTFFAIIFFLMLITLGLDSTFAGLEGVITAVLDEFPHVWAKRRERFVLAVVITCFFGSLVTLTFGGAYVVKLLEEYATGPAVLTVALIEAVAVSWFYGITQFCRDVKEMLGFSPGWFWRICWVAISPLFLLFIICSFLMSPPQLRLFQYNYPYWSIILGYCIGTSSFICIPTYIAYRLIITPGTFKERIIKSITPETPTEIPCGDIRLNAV
Assay [4] addresses T1, h5HT2A. As to the kind of experiment: h5HT2A binding. The source holds these as a separate data set.
Assay [5] concerns the target T2, h5HT2B. As to the kind of experiment: h5HT2B binding. This is another data set of the same source.
In assay [6] the target is T3, h5HT2C. The assay can be described thus: h5HT2C binding. The source holds these as a separate data set.

Sequence of h5-HT6 (P50406 whole entry): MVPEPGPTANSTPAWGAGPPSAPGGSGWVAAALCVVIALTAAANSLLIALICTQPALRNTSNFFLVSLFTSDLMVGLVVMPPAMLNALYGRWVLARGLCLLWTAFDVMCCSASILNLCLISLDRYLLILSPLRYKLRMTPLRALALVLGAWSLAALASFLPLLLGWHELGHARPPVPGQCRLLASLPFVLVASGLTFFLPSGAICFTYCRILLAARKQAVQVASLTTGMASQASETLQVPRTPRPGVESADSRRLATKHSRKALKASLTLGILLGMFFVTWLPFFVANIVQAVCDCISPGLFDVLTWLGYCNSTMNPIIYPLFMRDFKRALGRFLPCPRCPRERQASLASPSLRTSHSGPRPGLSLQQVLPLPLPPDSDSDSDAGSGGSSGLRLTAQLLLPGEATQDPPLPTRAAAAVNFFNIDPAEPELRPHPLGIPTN

What is called Ki is the dissociation constant of the complex between target and ligand, obtained from inhibition or displacement. Turning to `Fc1ccc(Oc2cc(Cl)ccc2O[C@@H]2CCNC2)cc1` [Example 270, (R)-3-[4-Chloro-2-(4-fluoro-phenoxy)-phenoxy]-pyrrolidine], the Ki at rat 5-HT7 receptor (rat 5-HT7, HEK-293 membranes) came out at 1000 nM; on h5HT2A [1], 120 nM; on h5HT2B [2] it was 75 nM; on h5HT2C [3] it was 240 nM.
With `Clc1cccc(COc2ccc(Br)cc2OC2CNC2)c1` [Example 2, 3-[5-Bromo-2-(3-chloro-benzyloxy)-phenoxy]-azetidine], the Ki came to 12 nM on rat 5-HT7 receptor (rat 5-HT7 receptor, HEK-293 membranes); 47 nM on h5-HT6; 1 nM at human SERT; 42 nM on h5HT2A [4]; 74 nM on h5HT2B [5]; 760 nM at h5HT2C [6]. The Kb at r5-HT7 receptor was 31.6 nM.
For `Clc1ccc(O[C@H]2CCNC2)c(Oc2ccc(Br)cc2)c1` [Example 277, (S)-3-[2-(4-Bromo-phenoxy)-4-chloro-phenoxy]-pyrrolidine], the Ki came out at 5500 nM at rat 5-HT7 receptor (rat 5-HT7, HEK-293 membranes); 410 nM at h5HT2A [1]; 270 nM on h5HT2B [2]; 120 nM on h5HT2C [3].
As to `Cc1ccc(Oc2cc(Cl)ccc2O[C@@H]2CCN(C)C2)cc1` [Example 268, (R)-3-(4-Chloro-2-p-tolyloxy-phenoxy)-1-methyl-pyrrolidine], the Ki at rat 5-HT7 receptor (rat 5-HT7, HEK-293 membranes) was 820 nM; on h5HT2A [1], 150 nM; on h5HT2B [2] it was 130 nM; at h5HT2C [3], 380 nM.
In the case of `CC1(Oc2cc(Br)ccc2OCCc2ccccc2)CNC1` [Example 215, 3-(5-Bromo-2-phenethyloxy-phenoxy)-3-methyl-azetidine], the Ki at rat 5-HT7 receptor (rat 5-HT7, HEK-293 membranes) amounted to 11 nM; at human SERT, 44 nM; on h5HT2A [1], 6 nM; on h5HT2B [2], 17 nM; at h5HT2C [3], 26 nM.
Consider `Cc1cc(Oc2cc(Cl)ccc2O[C@H]2CCNC2)ccc1F` [Example 274, (S)-3-[4-Chloro-2-(4-fluoro-3-methyl-phenoxy)-phenoxy]-pyrrolidine], for which the Ki was determined as 8600 nM at rat 5-HT7 receptor (rat 5-HT7, HEK-293 membranes); 100 nM at h5HT2A [1]; 170 nM on h5HT2B [2]; 230 nM at h5HT2C [3].
Take `Clc1ccc(Oc2cc(Cl)ccc2O[C@H]2CCNC2)cc1` [Example 275, (S)-3-[4-Chloro-2-(4-chloro-phenoxy)-phenoxy]-pyrrolidine]: the inhibitory constant (Ki) on rat 5-HT7 receptor (rat 5-HT7, HEK-293 membranes) is over 10000 nM; on h5HT2A [1], 530 nM; on h5HT2B [2] it was 910 nM; at h5HT2C [3], 220 nM.
For `Fc1ccc(Oc2cc(Cl)ccc2O[C@H]2CCNC2)cc1` [Example 269, (S)-3-[4-Chloro-2-(4-fluoro-phenoxy)-phenoxy]-pyrrolidine], the Ki is over 10000 nM at rat 5-HT7 receptor (rat 5-HT7, HEK-293 membranes); 190 nM at h5HT2A [1]; 500 nM on h5HT2B [2]; 400 nM at h5HT2C [3].
On to `Cc1ccc(Oc2cc(Cl)ccc2O[C@@H]2CCNC2)cc1` [Example 267, (R)-3-(4-Chloro-2-p-tolyloxy-phenoxy)-pyrrolidine], for which the Ki at rat 5-HT7 receptor (rat 5-HT7, HEK-293 membranes) was found to be 2300 nM; on h5HT2A [1] it was 120 nM; at h5HT2B [2], 65 nM; at h5HT2C [3], 210 nM.
With `Clc1ccc(OC2CN(c3ccccc3)C2)c(OC2CNC2)c1` [Example 222, 3-[5-Chloro-2-(1-phenyl-azetidin-3-ol)-phenoxy]-azetidine], the Ki at rat 5-HT7 receptor (rat 5-HT7, HEK-293 membranes) was determined as 18 nM; at human SERT, 2110 nM; at h5HT2C [3], 1010 nM.
For `Cc1ccccc1Oc1cc(Cl)ccc1O[C@H]1CCNC1` [Example 272, (S)-3-(4-Chloro-2-o-tolyloxy-phenoxy)-pyrrolidine], the Ki at rat 5-HT7 receptor (rat 5-HT7, HEK-293 membranes) was over 10000 nM; on h5HT2A [1], 220 nM; on h5HT2B [2], 310 nM; at h5HT2C [3] it was 330 nM.
For the compound `CN1CC[C@@H](Oc2ccc(Cl)cc2Oc2ccc(F)cc2)C1` [Example 271, (R)-3-[4-Chloro-2-(4-fluoro-phenoxy)-phenoxy]-1-methyl-pyrrolidine], the Ki amounted to 660 nM at rat 5-HT7 receptor (rat 5-HT7, HEK-293 membranes); 78 nM at h5HT2A [1]; 98 nM at h5HT2B [2]; 350 nM at h5HT2C [3].
For `CC(C)c1ccc(Oc2cc(Cl)ccc2O[C@H]2CCNC2)cc1` [Example 278, (S)-3-[4-Chloro-2-(4-isopropyl-phenoxy)-phenoxy]-pyrrolidine], the Ki was over 10000 nM at rat 5-HT7 receptor (rat 5-HT7, HEK-293 membranes); 1400 nM at h5HT2A [1]; 1300 nM on h5HT2B [2]; 330 nM at h5HT2C [3].
As for `Cc1ccc(Oc2cc(Cl)ccc2O[C@H]2CCNC2)cc1` [Example 266, (S)-3-(4-Chloro-2-p-tolyloxy-phenoxy)-pyrrolidine], the Ki is over 10000 nM on rat 5-HT7 receptor (rat 5-HT7, HEK-293 membranes); 150 nM on h5HT2A [1]; 130 nM at h5HT2B [2]; 230 nM at h5HT2C [3].
In the case of `Cc1cccc(Oc2cc(Cl)ccc2O[C@H]2CCNC2)c1` [Example 273, (S)-3-(4-Chloro-2-m-tolyloxy-phenoxy)-pyrrolidine], the Ki at rat 5-HT7 receptor (rat 5-HT7, HEK-293 membranes) was over 5000 nM; on h5HT2A [1], 82 nM; at h5HT2B [2], 160 nM; at h5HT2C [3], 150 nM.
For `C[C@@H]1NC[C@H]1Oc1cc(Br)ccc1OCc1cccc(F)c1` (racemic) [Example 219, (±)-trans-3-[5-Bromo-2-(3-fluoro-benzyloxy)-phenoxy]-2-methyl-azetidine], the Ki was 9 nM at rat 5-HT7 receptor (rat 5-HT7, HEK-293 membranes); 68 nM on human SERT; 31 nM on h5HT2C [3].
On to `Clc1cccc(Oc2cc(Cl)ccc2O[C@H]2CCNC2)c1` [Example 276, (S)-3-[4-Chloro-2-(3-chloro-phenoxy)-phenoxy]-pyrrolidine], for which the Ki is over 10000 nM on rat 5-HT7 receptor (rat 5-HT7, HEK-293 membranes); 84 nM at h5HT2A [1]; 190 nM at h5HT2B [2]; 120 nM at h5HT2C [3].
